Reference: US8202987B2, “Method of obtaining conformational polymorph of sucrose” (National Central University, priority 2007, dated 2012)

Format: physicochemical
Protocol: Then an anti-solvent method is used at 60° C. to add methanol into the saturated sucrose solution for obtaining the new sucrose through re-crystallization. The new sucrose obtained has a melting point at 150° C., which is lower then 190° C. for the original sucrose. […] Therefore, the present invention contributes to sugar industry, drug industry and food industry.
Conclusively, a novel conformational polymorph of sucrose is obtained according to the present invention.

| SMILES | solubility relative to the original sucrose | stability relative to the original sucrose | solubility |
| --- | --- | --- | --- |
| OC[C@H]1O[C@@](CO)(O[C@H]2O[C@H](CO)[C@@H](O)[C@H](O)[C@H]2O)[C@@H](O)[C@@H]1O [new sucrose, sucrose] | lower solubility than the original sucrose | higher stability than the original sucrose |  |
| OC[C@H]1O[C@@](CO)(O[C@H]2O[C@H](CO)[C@@H](O)[C@H](O)[C@H]2O)[C@@H](O)[C@@H]1O [sucrose] |  |  | 2873 milligrams sucrose per milliliter water |
